Patent US20250212880A1, “COMPOSITION FOR COATING PLANT SEED” (priority 2022, published 2025)

Experiments:
Format in all cases: in vivo
Zea mays [1] = assay: Field test of Zea mays (ear yield); settings: field cultivation, Belgium; seed coating 0.25 g tryptophan and/or 1000 g allantoin per tonne of seeds
Experimental: In the same manner as in Example 1, Zea mays seeds coated with 0.25 g of tryptophan per tonne of seeds, Zea mays seeds coated with 1000 g of allantoin per tonne of seeds, and Zea mays seeds coated with 0.25 g of tryptophan and 1000 g of allantoin per tonne of seeds were prepared. As a control group, seeds without coating were prepared.
• Location: the Wilderen MAR field, the Kingdom of Belgium • Variety: LIKEiT • Date of seeding: Apr. 27, 2020 • Date of harvesting: Oct. 12, 2020
Cultivation was performed in accordance with the conventional fertilization management technique and pest management technique, and the yield was inspected. • Inspection of yield: 120 strains/group; the number of repetitions: 4

Zea mays [2] = assay: Cultivation of Zea mays from coated seeds under non-stress conditions; settings: dent corn, 3 weeks (21 days) after seeding, seed coating Trp 0.045-0.45 g and/or allantoin 50 or 500 g per tonne of seeds
Experimental: Dent corn seeds (100 g; the variety: Snow-dent “Otoha”) were coated with 800 μL of a coating solution comprising tryptophan, allantoin, polyvinyl alcohol, and a coloring dye in water using a coater (SATEC). Coating was performed using either or both of tryptophan in an amount of 0 g, 0.045 g, 0.225 g, or 0.45 g and allantoin in an amount of 0 g, 50 g, or 500 g per tonne of seeds (MT).
Culture soil was filled into 12-cm vinyl pots, and the coated dent corn seeds were seeded at 4 grains/pot. After germination, a differently grown strain was thinned to retain 3 strains in a pot. Cultivation was performed in a glass greenhouse, and inspection was performed 21 days after seeding. The height, the fresh weight of the aboveground part, and the dry weight of the underground part were measured, and the density (the fresh weight of the aboveground part/the height) was determined. […] The test was repeated 6 times, and the average was determined.
The fresh weight of the aboveground part, the density, and the dry weight of the underground part measured for groups each treated with different amounts of tryptophan and allantoin were indicated as the rates of changes (%), relative to the fresh weight of the aboveground part, the density, and the dry weight of the underground part of plants in the test group (control group) treated with a coating solution not comprising tryptophan or allantoin. […]

wheat [3] = assay: Cultivation of wheat from coated seeds under non-stress conditions; settings: 2 weeks after seeding, seed coating Trp 0.045-9 g and/or allantoin 50 g per tonne of seeds
Experimental: Wheat seeds (100 g, the variety: Yumechikara) were coated with 800 μL of a coating solution comprising tryptophan, allantoin, polyvinyl alcohol, and a coloring dye in water using a coater (SATEC). Coating was performed using either or both of tryptophan in an amount of 0 g, 0.045 g, 0.45 g, 4.5 g, or 9 g and allantoin in an amount of 0 g or 50 g per tonne of seeds.
Culture soil was filled into 12-cm vinyl pots, and the coated wheat seeds were seeded at 4 grains/pot. After germination, a differently grown strain was thinned to retain 3 strains in a pot. Cultivation was performed in a glass greenhouse, and inspection was performed 2 weeks after seeding. The test was repeated 6 times, and the average was determined.
(§1) The measured fresh weight of the aboveground part of plants in groups each treated with different amounts of tryptophan and allantoin was indicated as the rate of change (%), relative to the fresh weight of the aboveground part of plants in the test group (control group) treated with a coating solution not comprising tryptophan or allantoin.

wheat [4] = assay: Cultivation of wheat from coated seeds under salt stress conditions; settings: salt stress (NaCl 4.0 g/L soil), 2 weeks after seeding, seed coating Trp 0.045-9 g and/or allantoin 50 g per tonne of seeds
Experimental: Wheat seeds (100 g; the variety: Yumechikara) were coated with 800 μL of a coating solution comprising tryptophan, allantoin, polyvinyl alcohol, and a coloring dye in water using a coater (SATEC). Coating was performed using either or both of tryptophan in an amount of 0 g, 0.045 g, 0.45 g, 4.5 g, or 9 g and allantoin in an amount of 0 g or 50 g per tonne of seeds.
Culture soil comprising sodium chloride at 4.0 g/L of the soil was filled into 7.5-cm pots, and the coated wheat seeds were seeded at 1 grain/pot. Cultivation was performed in a glass greenhouse, and inspection was performed 16 days after seeding. The height and the fresh weight of the aboveground part were measured, and the density (the fresh weight of the aboveground part/the height) was determined. The test was repeated 9 times, and the average was determined.
The density of the test groups treated with different amounts of tryptophan and allantoin was indicated as the rate of change (%), relative to the density of the test group (control group) treated with a coating solution not comprising tryptophan or allantoin.

soybean [5] = assay: Cultivation of soybean from coated seeds under non-stress conditions; settings: 3 weeks after seeding, seed coating Trp 0.225-5 g and/or allantoin 25 g per tonne of seeds
Experimental: Soybean seeds (100 g; the variety: Fukuyutaka) were coated with 800 μL of a coating solution comprising tryptophan, allantoin, polyvinyl alcohol, and a coloring dye in water using a coater (SATEC). Coating was performed using either or both of tryptophan in an amount of 0 g, 0.225 g, 0.45 g, or 5 g and allantoin in an amount of 0 g or 25 g per tonne of seeds.
Culture soil was filled into 12-cm vinyl pots, and the coated soybean seeds were seeded at 4 grains/pot. After germination, a differently grown strain was thinned to retain 3 strains in a pot. Cultivation was performed in a glass greenhouse, and inspection was performed 3 weeks after seeding. The test was repeated 6 times, and the average was determined.
as §1

soybean [6] = assay: Cultivation of soybean from coated seeds under salt stress conditions; settings: salt stress (NaCl 1.0 g/L soil), 3 weeks after seeding, seed coating Trp 0.045-5 g and/or allantoin 50 g per tonne of seeds
Experimental: Soybean seeds (100 g; the variety: Fukuyutaka) were coated with 800 μL of a coating solution comprising tryptophan, allantoin, polyvinyl alcohol, and a coloring dye in water using a coater (SATEC). Coating was performed using either or both of tryptophan in an amount of 0 g, 0.045 g, 0.225 g, 0.45 g, or 5 g and allantoin in an amount of 0 g or 50 g per tonne of seeds.
Culture soil comprising sodium chloride at 1.0 g/L of the soil was filled into 7.5-cm pots, and the coated soybean seeds were seeded at 1 grain/pot. Cultivation was performed in a glass greenhouse, and inspection was performed 3 weeks after seeding. The dry weight of the underground part was measured. The test was repeated 9 times, and the average was determined.

Compound	ear yield relative to the control group (100%) (Zea mays [1]) [%]	rate of change in the fresh weight of the aboveground part relative to control group (Zea mays [2]) [%]	rate of change in the fresh weight of the aboveground part relative to control group (wheat [3]) [%]	rate of change in the density relative to control group (wheat [4]) [%]	rate of change in the fresh weight of the aboveground part relative to control group (soybean [5]) [%]	rate of change in the dry weight of the underground part relative to control group (soybean [6]) [%]
N[C@@H](Cc1c[nH]c2ccccc12)C(=O)O [tryptophan, L-tryptophan]	100.4					
NC(=O)NC1NC(=O)NC1=O (stereo not shown) [allantoin, 5-ureidohydantoin]	100.4	5	1	3	4	2
